Results: US20240368181A1, “QUINOXALINE DERIVATIVES AND USES THEREOF” (Black Diamond Therapeutics, Inc., priority 2021, published 2024)

Assays:
Format in all cases: cell-based
[1] = tested on: DMS-114 (FGFR1 overexpression) cells; test: cell proliferation assay (CellTiterGlo), DMS-114 cells; settings: Homo sapiens, DMS-114, 72 h
How it was run: (§1)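 IC50 for growth inhibition, normalized to DMSO-treated cells as viable. Cell number was estimated from ATP luminescence (CellTiterGlo) following incubation with compound at varying concentrations.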

[2] = tested on: RT-112 (FGFR3-Tacc3 fusion) cells; test: cell proliferation assay (CellTiterGlo), RT-112 cells; settings: Homo sapiens, RT-112, RT112 cells, 72 hours
How it was run: as §1

[3] = tested on: SNU-16 (FGFR2-amplification) cells; test: cell proliferation assay (CellTiterGlo), SNU-16 cells; settings: Homo sapiens, 72 hours
How it was run: as §1

[4] = tested on: UM-UC-14 (FGFR3-S249C) cells; test: cell proliferation assay (CellTiterGlo), UM-UC-14 cells; settings: UMUC14, 72 h
How it was run: as §1

| Structure (SMILES) | IC50 [3] [µM] | IC50 [1] [µM] | IC50 [2] [µM] | IC50 [4] [µM] |
| --- | --- | --- | --- | --- |
| Cc1nc2ccc(Oc3ccc4ncc(-c5cnn(C6CC7CC6CN7)c5)nc4c3Cl)cc2[nH]1 (stereo not drawn) [Compound 353] | 0.02 to 0.1 | ≥ 0.4 | 0.02 to 0.1 | 0.02 to 0.1 |
| Cc1nc2ccc(Oc3ccc4ncc(-c5cnn([C@H]6CC[C@H](N7CCC7)CC6)c5)nc4c3Cl)cc2[nH]1 [Compound 355] | 0.02 to 0.1 | 0.1 to 0.4 | 0.02 to 0.1 | 0.02 to 0.1 |
| Cc1nc2ccc(Oc3ccc4ncc(-c5cnn([C@H]6CC[C@@H](N7CCC7)CC6)c5)nc4c3Cl)cc2[nH]1 [Compound 356] | 0.02 to 0.1 | 0.1 to 0.4 | 0.02 to 0.1 | 0.02 to 0.1 |
| Cc1nc2ccc(Oc3ccc4ncc(-c5cnn(CC6(C)CCOC6)c5)nc4c3Cl)cc2[nH]1 (stereo not drawn) [Compound 357] | 0.02 to 0.1 | ≥ 0.4 | 0.02 to 0.1 | 0.02 to 0.1 |
| Cc1nc2ccc(Oc3ccc4ncc(-c5cnn(C6CCC(F)(F)CC6)c5)nc4c3Cl)cc2[nH]1 [Compound 358] | 0.02 to 0.1 | ≥ 0.4 | 0.1 to 0.4 | 0.1 to 0.4 |
| Cc1nc2ccc(Oc3ccc4ncc(-c5cnn(C(C)(C)CO)c5)nc4c3Cl)cc2[nH]1 [Compound 359] | 0.02 to 0.1 | ≥ 0.4 | 0.02 to 0.1 | 0.02 to 0.1 |
| Cc1nc2ccc(Oc3ccc4ncc(-c5cnn([C@H]6CCN(C7COC7)C[C@@H]6F)c5)nc4c3Cl)cc2[nH]1 [Compound 360] | 0.02 to 0.1 | ≥ 0.4 | 0.02 to 0.1 | 0.02 to 0.1 |
| Cc1nc2ccc(Oc3ccc4ncc(-c5cnn([C@@H]6C[C@H]7CC[C@@H](C6)N7)c5)nc4c3Cl)cc2[nH]1 [Compound 361] | 0.1 to 0.4 | 0.1 to 0.4 | 0.02 to 0.1 | 0.02 to 0.1 |
| Cc1nc2ccc(Oc3ccc4ncc(-c5cnn([C@H]6C[C@H]7CC[C@@H](C6)N7)c5)nc4c3Cl)cc2[nH]1 [Compound 362] | 0.02 to 0.1 | 0.1 to 0.4 | 0.02 to 0.1 | 0.02 to 0.1 |
| Cc1nc2ccc(Oc3ccc4ncc(-c5cnn([C@@H]6C[C@H]7CC[C@@H](C6)N7C)c5)nc4c3Cl)cc2[nH]1 [Compound 363] | 0.02 to 0.1 | ≥ 0.4 | 0.02 to 0.1 | 0.02 to 0.1 |
| Cc1nc2ccc(Oc3ccc4ncc(-c5cnn([C@H]6C[C@H]7CC[C@@H](C6)N7C)c5)nc4c3Cl)cc2[nH]1 [Compound 364] | 0.02 to 0.1 | 0.1 to 0.4 | < 0.02 | < 0.02 |
| Cc1nc2ccc(Oc3ccc4ncc(-c5cnn([C@H]6CCNC[C@@H]6F)c5)nc4c3Cl)cc2[nH]1 [Compound 369] | 0.02 to 0.1 | ≥ 0.4 | 0.02 to 0.1 | 0.02 to 0.1 |
| CCS(=O)(=O)N1CC(n2cc(-c3cnc4ccc(Oc5ccc6nc(C)[nH]c6c5)c(Cl)c4n3)cn2)C1 [Compound 372] | 0.02 to 0.1 | ≥ 0.4 | 0.02 to 0.1 | 0.02 to 0.1 |
| CC(=O)N1CCCC(n2cc(-c3cnc4ccc(Oc5ccc6nc(C)[nH]c6c5)c(Cl)c4n3)cn2)C1 (stereo not drawn) [Compound 373] | 0.02 to 0.1 | ≥ 0.4 | 0.02 to 0.1 | 0.02 to 0.1 |
| CCS(=O)(=O)N1CC(CC#N)(n2cc(-c3cnc4ccc(Oc5ccc6nc(C)[nH]c6c5)c(Cl)c4n3)cn2)C1 [Compound 374] | 0.02 to 0.1 | ≥ 0.4 | < 0.02 | 0.02 to 0.1 |
| Cc1nc2ccc(Oc3ccc4ncc(-c5cnn(CCC6C=CCO6)c5)nc4c3Cl)cc2[nH]1 (stereo not drawn) [Compound 376] | 0.02 to 0.1 | ≥ 0.4 | 0.02 to 0.1 | 0.02 to 0.1 |
| Cc1nc2ccc(Oc3ccc4ncc(-c5cnn(CC6CC7CC6CN7C)c5)nc4c3Cl)cc2[nH]1 (stereo not drawn) [Compound 379] | 0.02 to 0.1 | 0.1 to 0.4 | 0.02 to 0.1 | 0.02 to 0.1 |
| Cc1nc2ccc(Oc3ccc4ncc(-c5cnn(CCN6CCCC6)c5)nc4c3Cl)cc2[nH]1 [Compound 381] | 0.02 to 0.1 | ≥ 0.4 | 0.02 to 0.1 | 0.02 to 0.1 |
| Cc1nc2ccc(Oc3ccc4ncc(-c5cnn(CC(=O)N6CCCC6)c5)nc4c3Cl)cc2[nH]1 [Compound 383] | 0.02 to 0.1 | ≥ 0.4 | 0.02 to 0.1 | 0.02 to 0.1 |

The next lines start with results.

| IC50 [3] [µM] | Structure (SMILES) | IC50 [1] [µM] | IC50 [2] [µM] | IC50 [4] [µM] |
| --- | --- | --- | --- | --- |
| 0.02 to 0.1 | Cc1nc2ccc(Oc3ccc4ncc(-c5cnn(CC6CCN(C(N)=O)CC6)c5)nc4c3Cl)cc2[nH]1 [Compound 354] | 0.1 to 0.4 | < 0.02 | 0.02 to 0.1 |
| 0.02 to 0.1 | Cc1nc2ccc(Oc3ccc4ncc(-c5cnn(CC6C7COCC76)c5)nc4c3Cl)cc2[nH]1 (stereo not drawn) [Compound 365] | ≥ 0.4 | 0.02 to 0.1 | 0.02 to 0.1 |
| 0.02 to 0.1 | Cc1nc2ccc(Oc3ccc4ncc(-c5cnn(CC6CCC(S(C)(=O)=O)CC6)c5)nc4c3Cl)cc2[nH]1 (stereo not drawn) [Compound 366] | ≥ 0.4 | 0.02 to 0.1 | 0.02 to 0.1 |
| 0.02 to 0.1 | Cc1nc2ccc(Oc3ccc4ncc(-c5cnn(C[C@@H]6CCN(C)C[C@H]6F)c5)nc4c3Cl)cc2[nH]1 [Compound 367] | 0.1 to 0.4 | < 0.02 | 0.02 to 0.1 |
| 0.02 to 0.1 | Cc1nc2ccc(Oc3ccc4ncc(-c5cnn(C[C@H]6CCN(C)C[C@H]6F)c5)nc4c3Cl)cc2[nH]1 [Compound 368] | 0.1 to 0.4 | 0.02 to 0.1 | 0.02 to 0.1 |
| < 0.02 | Cc1nc2ccc(Oc3ccc4ncc(-c5cnn(C6CCN(C)CC6)c5)nc4c3Cl)cc2[nH]1 [Compound 370] | 0.1 to 0.4 | 0.02 to 0.1 | 0.02 to 0.1 |
| 0.02 to 0.1 | CSC1CCC(Cn2cc(-c3cnc4ccc(Oc5ccc6nc(C)[nH]c6c5)c(Cl)c4n3)cn2)CC1 (stereo not drawn) [Compound 371] | ≥ 0.4 | 0.02 to 0.1 | 0.1 to 0.4 |
| 0.02 to 0.1 | Cc1nc2ccc(Oc3ccc4ncc(-c5cnn(CC6CCNCC6F)c5)nc4c3Cl)cc2[nH]1 (stereo not drawn) [Compound 375] | 0.1 to 0.4 | < 0.02 | 0.02 to 0.1 |
| 0.02 to 0.1 | Cc1nc2ccc(Oc3ccc4ncc(-c5cnn(CC6CCSCC6)c5)nc4c3Cl)cc2[nH]1 [Compound 377] | ≥ 0.4 | 0.02 to 0.1 | 0.02 to 0.1 |
| 0.02 to 0.1 | Cc1nc2ccc(Oc3ccc4ncc(-c5cnn(C6CCCN(C)C6)c5)nc4c3Cl)cc2[nH]1 (stereo not drawn) [Compound 378] | ≥ 0.4 | 0.02 to 0.1 | 0.02 to 0.1 |
| 0.02 to 0.1 | Cc1nc2ccc(Oc3ccc4ncc(-c5cnn(CC6CCN(C)CC6(F)F)c5)nc4c3Cl)cc2[nH]1 (stereo not drawn) [Compound 380] | ≥ 0.4 | < 0.02 | 0.02 to 0.1 |
| 0.02 to 0.1 | Cc1nc2ccc(Oc3ccc4ncc(-c5cnn(CC6CCN(C)CC6)c5)nc4c3C#N)cc2[nH]1 [Compound 382] | 0.1 to 0.4 | 0.02 to 0.1 | 0.02 to 0.1 |
| ≥ 0.4 | C=CS(=O)(=O)N1CCC(Cn2cc(-c3cnc4ccc(Oc5ccc6nc(C)[nH]c6c5)c(Cl)c4n3)cn2)CC1 [Compound 384] | ≥ 0.4 | ≥ 0.4 | ≥ 0.4 |
| 0.02 to 0.1 | Cc1nc2ccc(Oc3ccc4ncc(-c5cnn(CC6CCS(=O)(=O)CC6)c5)nc4c3Cl)cc2[nH]1 [Compound 385] | 0.1 to 0.4 | < 0.02 | 0.02 to 0.1 |
